Experimental data as given in the NIST ThermoML archive (doi:10.1021/acs.jced.9b00414).
Numbers after ± are expanded uncertainties. Values belong to the compound of their own block, whether it stands above or below them.

Details: Liquid, Ebulliometric method (Recirculating still)

Structure (SMILES): Cc1ccccc1C [1,2-dimethylbenzene]
vapor or sublimation pressure (417.43 K): 101.3 ± 1.2 kPa

vapor or sublimation pressure (438.28 K): 101.3 ± 1.2 kPa
Structure (SMILES): CCCCOC(=O)CCC [butyl butanoate]

vapor or sublimation pressure (428.57 K): 101.3 ± 1.2 kPa
Structure (SMILES): O=C1CCCCC1 [cyclohexanone]

vapor or sublimation pressure (351.45 K): 101.3 ± 1.2 kPa
Structure (SMILES): CCO [ethanol]

vapor or sublimation pressure (363.36 K): 101.3 ± 1.2 kPa
Structure (SMILES): COC(=O)OC [dimethyl carbonate]
